Measurements reported in patent publication US4518611A, “2-Furylbutyrolactone modulation of the immune system in mammals” (priority 1983, dated 1985).
Like-named read-outs stand apart in the source and are kept apart here.

What was measured:
[1] = system: FLC-745 target cells; experiment: MLTC assay of cytotoxic lymphocyte (CTL) activity, FLC-745 target cells; format: cell-based, mouse, DBA/2
Description: A mixed lymphocyte tumor culture (MLTC) immunoassay, used to determine the cytotoxic lymphocyte (CTL) activity employs lymphocytes from either immunized (sensitized) mice or DBA/2 tumor dormant state animals in various stages of the tumor dormant state (TDS). The assay employs L5178Y target cells labeled with ^51 Chromium and effector cells (sensitized lymphocytes) from the above-mentioned sources. Effector-target cell ratios will vary with different experimental conditions and may or may not include irradiated stimulator L5178Y cells. Results are expressed as % lysis of target cells based on ratio of cpm of test group over cpm of total release (maximum) both of which are corrected for spontaneous release of ^51 Cr. The assay can be performed as an 8 or 18 hour release assay.
An MLTC assay is performed to assess the CTL activity and tumor target cell specificity of Cpd. 1. Tumor dormant spleen cells and normal spleen cells of DBA/2 mice are used as effector cells. Irradiated L5178Y cells are used as stimulator cells. ^51 Cr-labeled L5178Y cells and FLC-745 cells are used as target cells. The effector/target ratios studied are 100:1, 30:1 and 10:1.

[2] = system: spleen lymphocytes; details: 4 days
Method: The purpose of this assay is to challenge lymphocytes in microcultures with one or more polyclonal mitogens at concentrations that will induce mitogenesis within 72 hours of stimulation.
In the mouse model, spleens are removed from different strains of mice and the spleen cells are teased free and suspended in RPMI-1640 tissue culture medium at a concentration of usually […]. These cells are dispensed at a concentration of 5.0×10^5 cells per microculture well in a 96 well flat bottom 96 well tissue culture plate. All testing of the compounds of this invention or mitogens are done in replicates of 10. The cells are then treated with PHA, Con-A, specific antigens, or buffer only. If in vitro testing is done, varying concentrations of the compounds of this invention or buffer only are added to the cells as well. After treatment with the mitogens and/or compounds of this invention, the cells are incubated for 72 hours. The response of these cells to mitogens and/or the compounds of this invention is assessed using ^14 C-thymidine labeling on the fourth day at a concentration of 0.01 μCi/well. The labeled cells are harvested using a lymphocyte harvestor and placed onto fibrous paper discs. A scintillation cocktail is added to vials containing the discs and the results are obtained using a LKB-liquid scintillation counter (Model 1216/Rackbeta II). The data is expressed as a ratio of the cpm of the mitogen stimulated group to the control (nonmitogen) treated group=lymphocyte stimulation index (LSI).
The lymphocyte stimulation assay may be performed directly on spleen cells obtained from various strains of mice not treated with the compounds of this invention or on lymphocytes obtained from human […]. […] Alternatively, the mice may be treated in vivo with the compounds of this invention by intraperitoneal multi-dose schedules, followed by sacrifice and harvesting spleen lymphocytes. These cells are then tested for their response to polyclonal mitogens or specific antigens used to immunize the mice. In this system however, no additional compound is added to the in vitro lymphocyte stimulation assay system.
Two strains of mice, C57BL/6 and BALB/c, are treated 4 days with i.p. administration of either 50, 100, 200, or 400 mg/kg of Cpd. 1, or just buffer. This is followed on the fifth day by a lymphocyte stimulation assay.

In the case of `Cc1ccc(C2(O)C(=O)OC3C(O)COC32O)o1.Cc1ccc(C2(O)C(=O)OC3C(O)COC32O)o1.O=C1CCC(=O)O1` (stereo not shown) [Cpd. 1, 2-furylbutyrolactone:succinic anhydride], the “% Lysis” value ([1]; E + D, E/T 10:1, TDS effectors, no stimulators) is reported as 0.7%, the “% Lysis” value ([1]; E + D, E/T 30:1, TDS effectors, no stimulators) is reported as 4.6% and the “% Lysis” value ([1]; E + D, E/T 100:1, TDS effectors, no stimulators) is reported as 6.6%. The “% Lysis” value ([1]; E + S + D, E/T 10:1, TDS effectors + stimulators) was 0.5%, the “% Lysis” value ([1]; E + S + D, E/T 30:1, TDS effectors + stimulators) was 3.6% and the “enhancement of CTL activity (in words)” value ([1]; FLC-745 target, TDS effectors with stimulator cells) was “This effect is not observed in the FLC-745 target control system”. The “% Lysis” value ([1]; N + D, E/T 10:1, normal spleen cells, no stimulators) was -3.5%, the “% Lysis” value ([1]; N + D, E/T 30:1, normal spleen cells, no stimulators) was 0.9% and the “% Lysis” value ([1]; N + S + D, E/T 10:1, normal spleen cells + stimulators) was -1.1%. For the same compound, the “% Lysis” value ([1]; N + S + D, E/T 30:1, normal spleen cells + stimulators) was -0.8%, the “% Lysis” value ([1]; N + S + D, E/T 100:1, normal spleen cells + stimulators) was 5.8% and the “Lymphocyte Stimulation Index, Con-A” value ([2]; 50 mg/kg i.p.) was 20.5. The “Lymphocyte Stimulation Index, Control (no mitogen)” value ([2]; 50 mg/kg i.p.) was 1.4, the “Lymphocyte Stimulation Index, PHA” value ([2]; 50 mg/kg i.p.) was 6.44 and the “Lymphocyte Stimulation Index, Con-A” value ([2]; 100 mg/kg i.p.) was 21.8. For the same compound, the “Lymphocyte Stimulation Index, Control (no mitogen)” value ([2]; 100 mg/kg i.p.) was 1.0, the “Lymphocyte Stimulation Index, PHA” value ([2]; 100 mg/kg i.p.) was 5.24 and the “Lymphocyte Stimulation Index, Con-A” value ([2]; 200 mg/kg i.p.) was 20.5. For the same compound, the “Lymphocyte Stimulation Index, Control (no mitogen)” value ([2]; 200 mg/kg i.p.) was “.76”, the “Lymphocyte Stimulation Index, Con-A” value ([2]; 400 mg/kg i.p.) was 18.7 and the “Lymphocyte Stimulation Index, Control (no mitogen)” value ([2]; 400 mg/kg i.p.) was “.90”. The “Lymphocyte Stimulation Index, PHA” value ([2]; 400 mg/kg i.p.) was 6.71.
